Holding throughout (test): Kinase profiling
Holding throughout (assay type): biochemical

In test [1] the target is T1, PHKG1 (Homo sapiens, UniProt Q16816).
T1 construct: purchased ProQinase (Freiburg, Germany)
As to the method: (§1) The analysis was performed by ProQinase (Freiburg, Germany).

Test [2] concerns the target T2, CAMK2G (Homo sapiens, UniProt Q13555).
T2 construct: purchased ProQinase (Freiburg, Germany)
As to the method:
as §1

Test [3] deals with T3, ABL1 (Homo sapiens, UniProt P00519).
T3 construct: purchased ProQinase (Freiburg, Germany)
On the procedure: as §1

Test [4] addresses T4, MINK1 (Homo sapiens, UniProt Q8N4C8).
T4 construct: purchased ProQinase (Freiburg, Germany)
On the procedure:
as §1

The target in test [5] is T5, EPHA8 (Homo sapiens, UniProt P29322).
T5 construct: purchased ProQinase (Freiburg, Germany)
T5 sequence (P29322 28-1005): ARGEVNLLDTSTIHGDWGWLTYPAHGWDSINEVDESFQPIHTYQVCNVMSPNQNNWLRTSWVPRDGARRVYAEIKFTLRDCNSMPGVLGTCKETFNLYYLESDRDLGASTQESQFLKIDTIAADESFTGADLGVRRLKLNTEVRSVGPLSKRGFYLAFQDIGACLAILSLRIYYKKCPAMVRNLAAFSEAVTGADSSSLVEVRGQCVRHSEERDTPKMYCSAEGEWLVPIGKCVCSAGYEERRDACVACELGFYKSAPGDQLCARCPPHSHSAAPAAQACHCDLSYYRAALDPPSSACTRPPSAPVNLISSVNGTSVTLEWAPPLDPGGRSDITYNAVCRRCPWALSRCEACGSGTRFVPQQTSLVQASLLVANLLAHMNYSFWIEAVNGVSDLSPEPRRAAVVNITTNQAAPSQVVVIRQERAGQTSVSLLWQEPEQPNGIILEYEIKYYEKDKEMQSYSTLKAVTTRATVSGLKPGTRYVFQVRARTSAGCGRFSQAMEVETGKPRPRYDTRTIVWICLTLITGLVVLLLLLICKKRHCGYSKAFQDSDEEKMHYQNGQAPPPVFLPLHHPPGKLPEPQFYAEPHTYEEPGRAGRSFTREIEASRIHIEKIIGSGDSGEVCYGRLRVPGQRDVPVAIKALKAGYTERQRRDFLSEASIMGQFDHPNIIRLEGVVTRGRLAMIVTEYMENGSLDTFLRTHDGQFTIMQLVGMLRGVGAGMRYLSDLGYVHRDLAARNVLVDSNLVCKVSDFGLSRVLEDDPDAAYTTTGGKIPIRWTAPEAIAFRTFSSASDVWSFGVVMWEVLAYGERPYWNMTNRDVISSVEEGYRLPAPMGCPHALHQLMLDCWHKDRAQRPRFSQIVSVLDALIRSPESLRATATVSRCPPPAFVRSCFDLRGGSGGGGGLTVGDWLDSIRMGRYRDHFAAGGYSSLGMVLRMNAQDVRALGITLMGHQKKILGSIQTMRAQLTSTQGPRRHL
On the procedure:
as §1

The target of test [6] is T6, NEK7 (Homo sapiens, UniProt Q8TDX7).
T6 construct: purchased ProQinase (Freiburg, Germany)
As to the method:
as §1

Test [7] deals with T7, HIPK4 (Homo sapiens, UniProt Q8NE63).
T7 construct: purchased ProQinase (Freiburg, Germany)
T7 sequence (Q8NE63 1-616): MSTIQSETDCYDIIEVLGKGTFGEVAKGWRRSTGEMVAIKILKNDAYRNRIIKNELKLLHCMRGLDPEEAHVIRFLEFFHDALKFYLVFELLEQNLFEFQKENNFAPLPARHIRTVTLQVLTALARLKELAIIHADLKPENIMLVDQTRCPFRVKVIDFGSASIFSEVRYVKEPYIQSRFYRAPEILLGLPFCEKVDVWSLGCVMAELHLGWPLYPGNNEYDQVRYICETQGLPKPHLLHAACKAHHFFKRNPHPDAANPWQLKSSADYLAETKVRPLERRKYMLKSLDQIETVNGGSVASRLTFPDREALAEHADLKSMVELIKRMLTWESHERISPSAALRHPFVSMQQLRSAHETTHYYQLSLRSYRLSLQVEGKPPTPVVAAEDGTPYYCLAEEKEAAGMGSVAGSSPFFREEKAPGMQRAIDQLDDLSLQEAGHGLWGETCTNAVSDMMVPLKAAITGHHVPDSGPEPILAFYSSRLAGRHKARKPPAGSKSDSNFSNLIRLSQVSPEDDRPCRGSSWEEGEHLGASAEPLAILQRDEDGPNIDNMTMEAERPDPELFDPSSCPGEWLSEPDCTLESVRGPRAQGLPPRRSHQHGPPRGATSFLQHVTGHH
As to the method:
as §1

Test [8] deals with T8, CK1gamma3 (Homo sapiens, UniProt Q9Y6M4).
T8 construct: purchased ProQinase (Freiburg, Germany)
On the procedure:
as §1

Test [9] concerns the target T9, LIMK2 (Homo sapiens, UniProt P53671).
T9 construct: purchased ProQinase (Freiburg, Germany)
On the procedure: as §1

Test [10] addresses T10, TXK (Homo sapiens, UniProt P42681).
T10 construct: purchased ProQinase (Freiburg, Germany)
T10 sequence (P42681 1-527): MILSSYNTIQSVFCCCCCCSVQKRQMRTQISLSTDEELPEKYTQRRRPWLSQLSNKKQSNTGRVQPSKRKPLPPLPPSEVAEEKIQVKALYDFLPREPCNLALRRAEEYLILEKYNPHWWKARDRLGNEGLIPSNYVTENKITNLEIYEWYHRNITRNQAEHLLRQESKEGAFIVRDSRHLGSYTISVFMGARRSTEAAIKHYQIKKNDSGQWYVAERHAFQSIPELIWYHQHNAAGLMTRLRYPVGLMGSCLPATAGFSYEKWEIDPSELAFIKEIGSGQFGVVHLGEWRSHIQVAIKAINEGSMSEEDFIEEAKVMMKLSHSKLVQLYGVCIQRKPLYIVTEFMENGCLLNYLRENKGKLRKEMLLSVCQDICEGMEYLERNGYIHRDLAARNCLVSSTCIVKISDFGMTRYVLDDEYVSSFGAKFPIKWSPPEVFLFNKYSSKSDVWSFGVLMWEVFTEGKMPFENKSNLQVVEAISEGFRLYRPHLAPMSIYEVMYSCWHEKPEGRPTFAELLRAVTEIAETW
On the procedure: as §1

Test [11] concerns the target T11, CDK8/CycC (Homo sapiens, UniProt P49336).
T11 construct: purchased ProQinase (Freiburg, Germany)
As to the method:
as §1

Among the data in paper PMC9030254, “Target Hopping from Protein Kinases to PXR: Identification of Small-Molecule Protein Kinase Inhibitors as Selective Modulators of Pregnane X Receptor from TüKIC Library” (Cells, 2022) are Residual activity and inhibition values, retold here.

T2 sequence (Q13555 whole entry): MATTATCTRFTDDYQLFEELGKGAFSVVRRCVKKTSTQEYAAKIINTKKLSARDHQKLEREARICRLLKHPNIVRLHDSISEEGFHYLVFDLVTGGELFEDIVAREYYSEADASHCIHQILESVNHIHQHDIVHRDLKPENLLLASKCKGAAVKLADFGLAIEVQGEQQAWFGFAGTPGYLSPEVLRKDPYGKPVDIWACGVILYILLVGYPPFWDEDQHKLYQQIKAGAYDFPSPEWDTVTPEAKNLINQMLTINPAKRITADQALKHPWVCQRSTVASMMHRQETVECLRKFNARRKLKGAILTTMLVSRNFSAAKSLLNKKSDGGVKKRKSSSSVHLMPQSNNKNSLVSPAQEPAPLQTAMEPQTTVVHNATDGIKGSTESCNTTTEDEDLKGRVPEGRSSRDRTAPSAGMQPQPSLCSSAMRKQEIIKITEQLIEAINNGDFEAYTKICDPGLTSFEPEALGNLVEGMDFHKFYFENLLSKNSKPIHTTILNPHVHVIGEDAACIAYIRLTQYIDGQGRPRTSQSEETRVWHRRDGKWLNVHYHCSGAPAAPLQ
T9 sequence (P53671 whole entry): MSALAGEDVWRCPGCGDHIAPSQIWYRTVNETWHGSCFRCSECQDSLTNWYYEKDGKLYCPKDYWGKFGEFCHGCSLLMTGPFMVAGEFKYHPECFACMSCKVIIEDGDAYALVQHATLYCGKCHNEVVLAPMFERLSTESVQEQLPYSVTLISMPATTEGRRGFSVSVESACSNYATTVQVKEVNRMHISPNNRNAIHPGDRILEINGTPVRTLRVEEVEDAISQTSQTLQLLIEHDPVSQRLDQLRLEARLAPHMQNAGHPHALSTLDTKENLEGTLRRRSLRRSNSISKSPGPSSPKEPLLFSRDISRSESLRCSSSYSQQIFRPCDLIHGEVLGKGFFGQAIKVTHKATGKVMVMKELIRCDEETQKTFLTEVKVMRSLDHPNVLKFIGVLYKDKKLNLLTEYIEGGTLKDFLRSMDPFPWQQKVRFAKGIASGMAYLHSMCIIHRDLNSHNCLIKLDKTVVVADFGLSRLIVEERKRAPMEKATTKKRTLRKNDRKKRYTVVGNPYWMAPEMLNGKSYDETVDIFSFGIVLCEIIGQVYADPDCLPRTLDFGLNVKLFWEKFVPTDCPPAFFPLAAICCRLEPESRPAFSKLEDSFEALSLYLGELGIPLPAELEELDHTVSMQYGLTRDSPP
T8 sequence (Q9Y6M4 whole entry): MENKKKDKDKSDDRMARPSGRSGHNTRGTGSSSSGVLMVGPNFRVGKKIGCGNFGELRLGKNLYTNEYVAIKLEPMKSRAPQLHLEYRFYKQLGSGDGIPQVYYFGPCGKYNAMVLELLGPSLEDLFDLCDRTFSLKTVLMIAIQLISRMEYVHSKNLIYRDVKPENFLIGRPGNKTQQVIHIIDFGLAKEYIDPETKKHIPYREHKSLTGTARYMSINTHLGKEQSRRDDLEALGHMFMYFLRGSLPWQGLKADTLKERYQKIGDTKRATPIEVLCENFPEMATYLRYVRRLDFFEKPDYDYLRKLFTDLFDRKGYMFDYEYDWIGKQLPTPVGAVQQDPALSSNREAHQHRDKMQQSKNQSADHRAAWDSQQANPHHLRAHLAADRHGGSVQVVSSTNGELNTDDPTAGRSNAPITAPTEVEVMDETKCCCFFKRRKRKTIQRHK
T1 sequence (Q16816 whole entry): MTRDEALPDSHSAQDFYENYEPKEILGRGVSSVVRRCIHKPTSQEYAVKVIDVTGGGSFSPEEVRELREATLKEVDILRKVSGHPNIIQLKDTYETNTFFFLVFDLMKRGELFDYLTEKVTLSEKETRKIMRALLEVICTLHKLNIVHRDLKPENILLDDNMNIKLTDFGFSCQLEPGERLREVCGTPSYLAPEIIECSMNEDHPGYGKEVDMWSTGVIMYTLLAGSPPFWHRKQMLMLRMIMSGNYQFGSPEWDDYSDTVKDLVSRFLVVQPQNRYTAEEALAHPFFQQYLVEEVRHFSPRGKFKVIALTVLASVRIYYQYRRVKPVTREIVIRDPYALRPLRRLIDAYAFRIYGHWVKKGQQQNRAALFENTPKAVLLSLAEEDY
T3 sequence (P00519 whole entry): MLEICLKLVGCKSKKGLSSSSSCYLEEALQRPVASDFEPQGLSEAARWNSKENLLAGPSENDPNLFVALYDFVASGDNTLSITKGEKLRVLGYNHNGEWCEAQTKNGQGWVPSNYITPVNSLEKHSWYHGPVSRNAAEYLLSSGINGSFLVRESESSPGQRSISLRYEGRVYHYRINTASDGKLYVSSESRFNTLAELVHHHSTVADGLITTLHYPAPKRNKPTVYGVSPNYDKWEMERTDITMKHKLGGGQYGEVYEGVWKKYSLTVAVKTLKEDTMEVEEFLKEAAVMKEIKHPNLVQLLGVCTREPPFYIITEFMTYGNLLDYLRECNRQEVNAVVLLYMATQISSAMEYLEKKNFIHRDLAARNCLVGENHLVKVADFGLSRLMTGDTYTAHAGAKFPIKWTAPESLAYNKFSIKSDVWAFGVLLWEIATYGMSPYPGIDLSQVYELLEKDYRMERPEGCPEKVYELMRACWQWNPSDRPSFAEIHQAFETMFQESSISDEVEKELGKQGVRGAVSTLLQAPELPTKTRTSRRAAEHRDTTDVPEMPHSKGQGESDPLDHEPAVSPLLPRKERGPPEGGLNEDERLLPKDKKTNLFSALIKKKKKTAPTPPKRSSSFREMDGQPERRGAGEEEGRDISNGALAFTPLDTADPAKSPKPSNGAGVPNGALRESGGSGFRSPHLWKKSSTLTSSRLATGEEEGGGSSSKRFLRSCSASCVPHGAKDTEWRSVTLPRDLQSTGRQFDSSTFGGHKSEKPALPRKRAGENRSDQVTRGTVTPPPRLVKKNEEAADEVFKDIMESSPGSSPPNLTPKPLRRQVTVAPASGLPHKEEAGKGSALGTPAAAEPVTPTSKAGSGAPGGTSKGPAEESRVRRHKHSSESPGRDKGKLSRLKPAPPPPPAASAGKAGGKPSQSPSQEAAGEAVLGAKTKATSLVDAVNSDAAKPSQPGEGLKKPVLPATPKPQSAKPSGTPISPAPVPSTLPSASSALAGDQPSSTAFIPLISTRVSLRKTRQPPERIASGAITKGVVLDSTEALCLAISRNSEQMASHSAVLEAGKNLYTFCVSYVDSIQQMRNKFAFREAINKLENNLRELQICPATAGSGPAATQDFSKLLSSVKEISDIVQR
T6 sequence (Q8TDX7 whole entry): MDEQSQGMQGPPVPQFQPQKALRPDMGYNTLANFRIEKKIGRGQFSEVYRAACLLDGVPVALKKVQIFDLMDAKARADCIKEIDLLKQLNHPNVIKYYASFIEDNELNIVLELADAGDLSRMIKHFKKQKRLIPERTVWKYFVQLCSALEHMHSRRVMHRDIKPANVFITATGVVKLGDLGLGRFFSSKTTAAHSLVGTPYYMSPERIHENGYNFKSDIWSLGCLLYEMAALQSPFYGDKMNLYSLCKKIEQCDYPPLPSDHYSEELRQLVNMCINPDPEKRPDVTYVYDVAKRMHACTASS
T11 sequence (P49336 whole entry): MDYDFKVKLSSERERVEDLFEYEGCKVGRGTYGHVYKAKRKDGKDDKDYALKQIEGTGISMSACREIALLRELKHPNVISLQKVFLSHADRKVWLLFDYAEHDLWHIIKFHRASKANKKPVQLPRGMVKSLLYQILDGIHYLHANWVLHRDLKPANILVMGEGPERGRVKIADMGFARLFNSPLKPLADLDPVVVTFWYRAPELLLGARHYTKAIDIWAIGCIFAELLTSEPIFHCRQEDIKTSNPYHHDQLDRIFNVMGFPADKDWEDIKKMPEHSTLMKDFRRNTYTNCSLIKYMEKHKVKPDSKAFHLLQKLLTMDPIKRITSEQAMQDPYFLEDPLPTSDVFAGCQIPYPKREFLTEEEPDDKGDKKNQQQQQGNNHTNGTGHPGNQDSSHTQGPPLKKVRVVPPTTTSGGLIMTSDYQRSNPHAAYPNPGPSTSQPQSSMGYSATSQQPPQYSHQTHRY
T11 sequence (P24863 whole entry partner): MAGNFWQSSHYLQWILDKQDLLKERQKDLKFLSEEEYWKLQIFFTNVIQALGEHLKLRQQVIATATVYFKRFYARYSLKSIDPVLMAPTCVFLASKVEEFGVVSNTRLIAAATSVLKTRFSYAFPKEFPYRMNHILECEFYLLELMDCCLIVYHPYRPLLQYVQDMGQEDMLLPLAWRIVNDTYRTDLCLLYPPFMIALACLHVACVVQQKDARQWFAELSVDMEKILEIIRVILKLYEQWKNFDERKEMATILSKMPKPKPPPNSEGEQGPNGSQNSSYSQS

For `O=C(Cc1ccccc1)Nc1ccc(F)c(Nc2ccc3c(c2)CCCCC3=O)c1` [Compound 100], the Residual activity in test [1] (1.0E-05 M) is 75 % of control; in [1] (1.0E-06 M), 95 % of control; in test [2] (1.0E-05 M) it was 107 % of control; in [2] (1.0E-06 M), 105 % of control; in test [3] (1.0E-05 M), 88 % of control; in test [3] (1.0E-06 M) it was 90 % of control. The Residual activity in test [4] (1.0E-05 M) is 73 % of control; in test [4] (1.0E-06 M), 89 % of control; in [5] (1.0E-05 M) it was 91 % of control; in test [5] (1.0E-06 M), 98 % of control; in [6] (1.0E-05 M) it was 118 % of control; in test [6] (1.0E-06 M), 109 % of control. Also, the Residual activity is given as 84 % of control in [7] (1.0E-05 M); 92 % of control in [7] (1.0E-06 M); 105 % of control in [8] (1.0E-05 M); 101 % of control in test [8] (1.0E-06 M); 82 % of control in test [9] (1.0E-05 M); 95 % of control in [9] (1.0E-06 M). Further, the Residual activity in test [10] (1.0E-05 M) is 90 % of control; in [10] (1.0E-06 M) it was 100 % of control; in test [11] (1.0E-05 M), 60 % of control; in [11] (1.0E-06 M) it was 82 % of control.
Turning to `O=C(Nc1ccc(F)c(Nc2ccc3c(c2)CCCCC3=O)c1)c1cccc(F)c1` [Compound 109], the Residual activity in test [1] (1.0E-05 M) is 86 % of control; in [1] (1.0E-06 M), 96 % of control; in test [2] (1.0E-05 M), 111 % of control; in [2] (1.0E-06 M) it was 109 % of control; in test [3] (1.0E-05 M), 91 % of control; in [3] (1.0E-06 M) it was 91 % of control. Moreover, the Residual activity in test [4] (1.0E-05 M) is 57 % of control; in test [4] (1.0E-06 M), 86 % of control; in [5] (1.0E-05 M), 91 % of control; in test [5] (1.0E-06 M), 110 % of control; in test [6] (1.0E-05 M), 121 % of control; in test [6] (1.0E-06 M), 108 % of control. Besides, the Residual activity in test [7] (1.0E-05 M) was 91 % of control; in test [7] (1.0E-06 M), 95 % of control; in test [8] (1.0E-05 M), 32 % of control; in [8] (1.0E-06 M), 79 % of control; in test [9] (1.0E-05 M), 93 % of control; in test [9] (1.0E-06 M), 98 % of control. Also, the Residual activity in test [10] (1.0E-05 M) is reported as 97 % of control; in test [10] (1.0E-06 M), 97 % of control; in test [11] (1.0E-05 M), 61 % of control; in [11] (1.0E-06 M) it was 79 % of control. Also, in test [8] (10 µM, read-out: inhibition of CK1-γ3), the inhibition at 10 µM is not below 50%.
